Experimental data: patent US9796671B2, “Aurora kinase inhibitors” (REGENTS OF THE UNIVERSITY OF MINNESOTA, priority 2012, dated 2017)

What was measured:
A549 lung cancer cells = test: Cytotoxicity (MTS assay); assay type: cell-based, human
Description: To estimate the cytotoxicity of Compound 1, cells are seeded (8×10^3 cells per well) in 96-well plates and cultured overnight. Cells are fed with fresh medium and treated with different doses of Compound 1. After culturing for various times, the cytotoxicity of Compound 1 is measured using an MTS assay kit (Promega, Madison, Wis.) according to the manufacturer's instructions.
The toxicity of Compound 1 on both MRC-5 normal lung cells and A549 lung cancer cells was then examined.

A549 cells = test: Apoptosis (Annexin V/PI staining); assay type: cell-based, human; conditions: A549, 5 μM, 72 hours
Description: (§1) Cells are plated in 60-mm plates and treated or not treated with Compound 1 for the indicated time. At each time point, cells are fixed in 70% ethanol and stored at −20° C. for 24 h. After staining, the cell cycle distribution or apoptosis is determined using a BD FACSCalibur Flow Cytometer (BD Biosciences, San Jose, Calif.). Aurora B inhibition leads to failure in cytokinesis and abnormal exit from mitosis, which could result in polyploidy cells, cell cycle arrest, and ultimately apoptosis. The ability to induce polyploidy cells was further examined in A549 cells treated or not treated with Compound 1. […] In addition, Compound 1 treatment for 48 hours caused an increase in the number of A549 and H520 cells occupying the G2/M phase. Moreover, exposure of these cells to Compound 1 for 72 hours induced apoptosis as measured by Annexin V/PI staining. For example, exposure to 5 μM Compound 1 induced 48% or 82% apoptosis in A549 cells and H520 cells, compared to 8% or 38% in untreated control cells, respectively.

H520 cells = test: Apoptosis (Annexin V/PI staining); assay type: cell-based, human; conditions: H520, 5 μM, 72 hours
Description: as §1

[1] = tested on: A549 cells transfected with Aurora B shRNA; test: Anchorage-independent growth, Aurora B knockdown cells; assay type: cell-based; conditions: Homo sapiens
Description: Tumor cells are suspended in basal medium Eagle (BME) medium and added to 0.6% agar, with different concentrations of Compound 1 in a base layer and a top layer of 0.3% agar. The cultures are maintained at 37° C. in a 5% CO2 incubator for 1 to 2 weeks and then colonies are counted under a microscope using the Image-Pro Plus software (v.4) program (Media Cybernetics, Silver Spring, Md.).
The effect of knocking down Aurora B expression in A549 cancer cells on the cell's sensitivity to Compound 1 was evaluated. […] Compound 1 (0.5 μM) inhibited anchorage-independent growth of A549 cells transfected with mock shRNA by about 90%.

[2] = tested on: phosphorylation of Akt (Ser473), GSK3β (Ser9), p70S6K (Thr389) and S6 (Ser235,236) in A549 cells; test: Western blot of Akt and downstream signaling in cells; assay type: cell-based, human
Source text: (§2) Proteins are resolved by SDS-PAGE and transferred onto polyvinylidene difluoride membranes (Millipore, Mass.), which are blocked with nonfat milk and hybridized with specific primary antibodies. The protein bands are visualized using an enhanced chemiluminescence reagent (GE Healthcare, Pittsburgh, Pa.) after hybridization with a horseradish peroxidase-conjugated secondary antibody.
(§3) According to the kinase profiler assay results, Akt2 also might be a potential target of Compound 1. An Akt1 and Akt2 in vitro kinase assays was performed.

[3] = tested on: phosphorylation of Akt (Ser473), GSK3β (Ser9), p70S6K (Thr389) and S6 (Ser235,236) in H520 cells; test: as above; assay type: cell-based, human
Source text: as §2, §3

[4] = tested on: A549 lung cancer cells xenograft; test: Xenograft mouse model, oral gavage (Example 7); assay type: in vivo; conditions: 40 mg/kg oral gavage 5 times a week
Source text: Athymic nude mice (6 week old nu/nu female mice, Harlan Laboratory, Minneapolis, Minn.) were inoculated in the right flank with A549 lung cancer cells (3*10^6 cells/mouse). Mice were maintained under “specific pathogen-free” conditions based on the guidelines established by the University of Minnesota Institutional Animal Care and Use Committee. Tumors were allowed to grow to an average of ˜53.5±34.5 mm^3 and then mice were divided into 2 equal groups with a similar average tumor volume (group 1; n=15), vehicle only; (group 2, […]), compound 1 at 40 mg/kg. Treatment with vehicle or compound 1 was initiated on Day 13 after inoculation of cells and continued to Day 80 (˜9 wks) and was administered by oral gavage 5 times a week. Tumor volume was measured once a week and body weight was measured once a week. Compound 1 was prepared in 2.5% DMSO/5% PEG 400/5% Tween-80 in 1×PBS and sonicated for ˜20 minutes. […] Data are shown as means±S.E (FIG. 1).

AMPK-alpha2 = molecular target: T1, AMPK-alpha2 (Homo sapiens, UniProt P54646); test: Kinase profile assay (Millipore); assay type: biochemical; conditions: read-out: kinase activity compared with the control
T1 construct: purchased Millipore
Description: (§4) A kinase profile assay was performed by Millipore, to examine other potential targets of Compound 1. Only Akt2 activity was suppressed more than 50% after 5 μM compound 1 treatment, compared with the control (Table 2). In addition, the kinase activity of Aurora A was decreased less than 25% at 5 μM Compound 1.

CDK2/cyclinA = molecular target: T2, CDK2/cyclinA (Homo sapiens, UniProt P24941); test: Kinase profile assay (Millipore); assay type: biochemical; conditions: 5 μM
T2 construct: purchased Millipore
Description: as §4

CDK3/cyclinE = molecular target: T3, CDK3/cyclinE (Homo sapiens, UniProt Q00526); test: Kinase profile assay (Millipore); assay type: biochemical; conditions: 5 μM
T3 construct: purchased Millipore
Description: as §4

DYRK2 = molecular target: T4, DYRK2 (Homo sapiens, UniProt Q92630); test: Kinase profile assay (Millipore); assay type: biochemical; conditions: read-out: kinase activity compared with the control
T4 construct: purchased Millipore
Description: as §4

FGFR1 = molecular target: T5, FGFR1 (Homo sapiens, UniProt P11362); test: Kinase profile assay (Millipore); assay type: biochemical; conditions: read-out: kinase activity compared with the control
T5 construct: purchased Millipore
Description: as §4

Fyn = molecular target: T6, Fyn (Homo sapiens, UniProt P06241); test: Kinase profile assay (Millipore); assay type: biochemical; conditions: read-out: kinase activity compared with the control
T6 construct: purchased Millipore
Description: as §4

IKK beta = molecular target: T7, IKK beta (Homo sapiens, UniProt O14920); test: Kinase profile assay (Millipore); assay type: biochemical; conditions: read-out: kinase activity compared with the control
T7 construct: purchased Millipore
Description: as §4

MAPK2 = molecular target: T8, MAPK2 (Homo sapiens, UniProt P28482); test: Kinase profile assay (Millipore); assay type: biochemical; conditions: read-out: kinase activity compared with the control
T8 construct: purchased Millipore
Description: as §4

PKB alpha (Akt1) = molecular target: T9, PKB alpha (Akt1) (Homo sapiens, UniProt P31749); test: Kinase profile assay (Millipore); assay type: biochemical; conditions: read-out: kinase activity compared with the control
T9 construct: purchased Millipore
Description: as §4

c-Kit = molecular target: T10, c-Kit (Homo sapiens, UniProt P10721); test: Kinase profile assay (Millipore); assay type: biochemical; conditions: read-out: kinase activity compared with the control
T10 construct: purchased Millipore
Description: as §4

c-RAF = molecular target: T11, c-RAF (Homo sapiens, UniProt P04049); test: Kinase profile assay (Millipore); assay type: biochemical; conditions: read-out: kinase activity compared with the control
T11 construct: purchased Millipore
Description: as §4

p70S6K = molecular target: T12, p70S6K (Homo sapiens, UniProt P23443); test: Kinase profile assay (Millipore); assay type: biochemical; conditions: read-out: kinase activity compared with the control
T12 construct: purchased Millipore
Description: as §4

T7 sequence (O14920 whole entry, species assumed): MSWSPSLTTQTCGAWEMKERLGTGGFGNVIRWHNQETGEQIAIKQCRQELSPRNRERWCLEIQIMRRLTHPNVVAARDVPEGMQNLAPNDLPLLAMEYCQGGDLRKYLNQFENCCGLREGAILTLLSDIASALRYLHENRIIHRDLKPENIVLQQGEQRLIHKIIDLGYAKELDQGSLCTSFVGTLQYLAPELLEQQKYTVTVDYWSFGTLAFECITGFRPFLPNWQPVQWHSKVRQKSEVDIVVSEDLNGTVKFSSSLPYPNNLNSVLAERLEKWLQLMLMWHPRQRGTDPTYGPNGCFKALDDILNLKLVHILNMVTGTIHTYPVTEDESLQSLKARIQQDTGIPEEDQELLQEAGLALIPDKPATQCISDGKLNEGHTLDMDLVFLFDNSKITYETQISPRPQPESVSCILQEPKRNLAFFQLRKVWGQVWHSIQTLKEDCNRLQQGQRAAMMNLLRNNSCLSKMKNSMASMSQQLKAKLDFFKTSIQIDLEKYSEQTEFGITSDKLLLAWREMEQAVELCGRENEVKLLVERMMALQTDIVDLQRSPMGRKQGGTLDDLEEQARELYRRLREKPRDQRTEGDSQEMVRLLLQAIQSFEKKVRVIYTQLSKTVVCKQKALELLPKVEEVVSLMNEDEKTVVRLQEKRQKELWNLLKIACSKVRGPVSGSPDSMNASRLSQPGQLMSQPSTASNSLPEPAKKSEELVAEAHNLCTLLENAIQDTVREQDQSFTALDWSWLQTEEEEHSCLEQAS
T10 sequence (P10721 26-976): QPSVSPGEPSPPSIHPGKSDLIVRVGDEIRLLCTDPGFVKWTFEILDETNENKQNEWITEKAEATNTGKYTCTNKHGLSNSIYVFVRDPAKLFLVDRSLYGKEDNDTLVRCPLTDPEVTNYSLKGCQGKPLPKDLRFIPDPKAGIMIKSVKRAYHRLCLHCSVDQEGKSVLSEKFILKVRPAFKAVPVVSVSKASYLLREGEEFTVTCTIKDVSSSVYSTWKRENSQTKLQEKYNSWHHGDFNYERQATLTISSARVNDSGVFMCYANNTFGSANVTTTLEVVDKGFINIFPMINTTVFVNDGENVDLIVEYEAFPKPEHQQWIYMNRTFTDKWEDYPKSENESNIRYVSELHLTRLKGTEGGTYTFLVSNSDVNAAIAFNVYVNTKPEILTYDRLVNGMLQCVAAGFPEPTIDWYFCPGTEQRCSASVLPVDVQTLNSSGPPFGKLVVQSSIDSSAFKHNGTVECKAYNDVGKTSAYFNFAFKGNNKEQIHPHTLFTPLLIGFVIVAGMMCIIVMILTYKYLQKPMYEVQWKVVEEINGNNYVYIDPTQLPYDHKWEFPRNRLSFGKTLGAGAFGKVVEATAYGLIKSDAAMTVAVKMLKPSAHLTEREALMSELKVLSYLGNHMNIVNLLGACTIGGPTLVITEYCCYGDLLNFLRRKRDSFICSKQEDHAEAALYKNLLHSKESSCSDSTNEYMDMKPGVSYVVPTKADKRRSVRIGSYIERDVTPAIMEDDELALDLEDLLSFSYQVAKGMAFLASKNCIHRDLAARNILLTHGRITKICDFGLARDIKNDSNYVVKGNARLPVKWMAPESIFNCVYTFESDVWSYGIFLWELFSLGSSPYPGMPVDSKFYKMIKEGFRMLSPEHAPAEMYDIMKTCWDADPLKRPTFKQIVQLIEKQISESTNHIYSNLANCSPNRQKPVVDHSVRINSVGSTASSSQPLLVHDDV
T12 sequence (P23443 whole entry): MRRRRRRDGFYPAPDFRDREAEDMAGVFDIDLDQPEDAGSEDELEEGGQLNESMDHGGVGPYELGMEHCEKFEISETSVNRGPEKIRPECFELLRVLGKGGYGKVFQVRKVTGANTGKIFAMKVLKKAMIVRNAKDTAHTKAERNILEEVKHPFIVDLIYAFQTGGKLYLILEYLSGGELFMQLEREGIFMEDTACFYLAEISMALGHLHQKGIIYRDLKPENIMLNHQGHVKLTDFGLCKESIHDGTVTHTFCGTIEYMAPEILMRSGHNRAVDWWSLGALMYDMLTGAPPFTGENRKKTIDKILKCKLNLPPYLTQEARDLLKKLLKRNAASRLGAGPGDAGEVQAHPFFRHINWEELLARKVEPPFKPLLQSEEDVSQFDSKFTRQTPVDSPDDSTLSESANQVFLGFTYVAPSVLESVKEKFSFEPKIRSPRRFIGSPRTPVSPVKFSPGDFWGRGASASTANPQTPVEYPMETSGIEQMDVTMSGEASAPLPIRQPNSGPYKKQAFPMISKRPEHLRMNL
T9 sequence (P31749 whole entry, species assumed): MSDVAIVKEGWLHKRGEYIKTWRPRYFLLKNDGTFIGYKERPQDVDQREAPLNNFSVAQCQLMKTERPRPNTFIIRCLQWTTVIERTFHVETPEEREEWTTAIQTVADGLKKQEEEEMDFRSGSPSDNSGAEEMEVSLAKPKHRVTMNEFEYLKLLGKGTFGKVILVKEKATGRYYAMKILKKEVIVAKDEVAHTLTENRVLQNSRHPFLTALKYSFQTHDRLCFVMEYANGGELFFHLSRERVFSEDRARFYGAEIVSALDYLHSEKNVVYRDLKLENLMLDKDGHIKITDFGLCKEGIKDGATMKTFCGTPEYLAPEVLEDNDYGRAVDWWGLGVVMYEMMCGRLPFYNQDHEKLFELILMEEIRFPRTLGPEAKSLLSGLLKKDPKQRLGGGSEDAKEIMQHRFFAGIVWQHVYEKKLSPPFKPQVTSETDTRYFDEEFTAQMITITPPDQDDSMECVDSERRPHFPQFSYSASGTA
T1 sequence (P54646 whole entry): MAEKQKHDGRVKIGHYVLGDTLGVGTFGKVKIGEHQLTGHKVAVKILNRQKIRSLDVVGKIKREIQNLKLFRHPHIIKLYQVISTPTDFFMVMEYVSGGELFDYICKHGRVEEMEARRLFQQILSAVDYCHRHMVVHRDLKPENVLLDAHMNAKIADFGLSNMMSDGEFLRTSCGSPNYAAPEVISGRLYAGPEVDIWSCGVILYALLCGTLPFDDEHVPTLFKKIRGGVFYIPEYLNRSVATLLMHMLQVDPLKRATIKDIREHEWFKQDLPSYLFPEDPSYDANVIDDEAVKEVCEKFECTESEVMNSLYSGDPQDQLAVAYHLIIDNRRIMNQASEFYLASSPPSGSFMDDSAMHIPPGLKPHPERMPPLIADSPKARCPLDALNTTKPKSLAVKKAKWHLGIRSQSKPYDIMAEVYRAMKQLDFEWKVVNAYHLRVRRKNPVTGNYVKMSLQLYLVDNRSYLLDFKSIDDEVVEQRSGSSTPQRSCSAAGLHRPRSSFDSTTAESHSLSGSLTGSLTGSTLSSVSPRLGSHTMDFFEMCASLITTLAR
T1 sequence (Q9Y478 whole entry partner): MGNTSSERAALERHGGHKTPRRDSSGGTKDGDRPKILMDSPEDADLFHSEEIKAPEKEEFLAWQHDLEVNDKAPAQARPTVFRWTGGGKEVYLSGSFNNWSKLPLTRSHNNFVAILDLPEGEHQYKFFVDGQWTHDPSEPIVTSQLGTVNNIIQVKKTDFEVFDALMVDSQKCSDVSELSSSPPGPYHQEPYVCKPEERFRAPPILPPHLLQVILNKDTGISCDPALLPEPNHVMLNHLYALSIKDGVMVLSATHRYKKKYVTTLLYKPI
T1 sequence (P54619 whole entry partner): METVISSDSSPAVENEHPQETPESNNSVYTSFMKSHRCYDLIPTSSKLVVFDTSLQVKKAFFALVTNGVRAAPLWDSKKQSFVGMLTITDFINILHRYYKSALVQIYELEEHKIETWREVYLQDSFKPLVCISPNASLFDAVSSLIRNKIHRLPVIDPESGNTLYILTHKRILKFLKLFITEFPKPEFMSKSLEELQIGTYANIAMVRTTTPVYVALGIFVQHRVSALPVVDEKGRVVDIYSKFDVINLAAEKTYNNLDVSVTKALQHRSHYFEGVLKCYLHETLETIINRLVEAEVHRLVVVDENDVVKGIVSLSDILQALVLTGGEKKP
T8 sequence (P28482 whole entry): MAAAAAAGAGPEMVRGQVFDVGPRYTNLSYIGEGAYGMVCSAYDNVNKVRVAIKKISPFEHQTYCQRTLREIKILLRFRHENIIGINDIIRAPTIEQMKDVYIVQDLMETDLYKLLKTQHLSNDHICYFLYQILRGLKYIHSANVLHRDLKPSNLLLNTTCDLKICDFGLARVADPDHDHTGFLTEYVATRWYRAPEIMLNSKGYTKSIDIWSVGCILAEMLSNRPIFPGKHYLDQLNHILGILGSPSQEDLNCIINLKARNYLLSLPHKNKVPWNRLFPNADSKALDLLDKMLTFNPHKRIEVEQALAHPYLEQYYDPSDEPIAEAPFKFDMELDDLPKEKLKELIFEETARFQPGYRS
T11 sequence (P04049 whole entry, species assumed): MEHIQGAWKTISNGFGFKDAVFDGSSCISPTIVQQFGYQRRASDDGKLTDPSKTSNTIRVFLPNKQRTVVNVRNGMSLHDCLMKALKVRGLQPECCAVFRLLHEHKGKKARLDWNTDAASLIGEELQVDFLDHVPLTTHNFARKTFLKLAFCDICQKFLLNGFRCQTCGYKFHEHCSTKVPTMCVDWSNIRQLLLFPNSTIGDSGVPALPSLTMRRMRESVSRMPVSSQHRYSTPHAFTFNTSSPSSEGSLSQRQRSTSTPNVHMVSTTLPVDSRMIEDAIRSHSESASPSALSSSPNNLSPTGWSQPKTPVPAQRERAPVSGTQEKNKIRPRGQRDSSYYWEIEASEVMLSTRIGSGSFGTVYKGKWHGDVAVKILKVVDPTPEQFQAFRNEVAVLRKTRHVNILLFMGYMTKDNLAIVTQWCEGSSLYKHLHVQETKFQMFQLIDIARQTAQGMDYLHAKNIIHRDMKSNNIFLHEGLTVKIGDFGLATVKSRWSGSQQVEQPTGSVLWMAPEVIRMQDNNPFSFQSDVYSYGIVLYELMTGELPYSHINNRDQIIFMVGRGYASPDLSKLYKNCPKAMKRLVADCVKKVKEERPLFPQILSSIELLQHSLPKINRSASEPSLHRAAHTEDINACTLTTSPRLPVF

O=C(/C=C/c1ccc2c(c1)OCO2)/C=C1/C(=O)Nc2ccccc21 [Compound 1]
cytotoxic effects on A549 lung cancer cells (A549 lung cancer cells; 1 μM or less): no obvious cytotoxic effects | toxicity toward A549 cancer cells (A549 lung cancer cells; 5 μM, 48 hours): weak toxicity | toxicity on A549 lung cancer cells (A549 lung cancer cells; concentrations greater than 10 μM): substantial toxicity | apoptosis (Annexin V/PI staining) (A549 cells): 48% | apoptosis (Annexin V/PI staining) (H520 cells): 82% | inhibition at 0.5 µM [1]: < 40% | effect on the phosphorylation of Akt or its downstream signaling molecules [2]: no effect | effect on the phosphorylation of Akt or its downstream signaling molecules [3]: no effect | final tumor volume (mean±S.E.) ([4]; Day 13 to Day 80, vehicle 1004±140.1, in mm³ (unit assumed)): 403.2±50.0 | toxicity in mice ([4]; ~9 wks): No toxicity | remaining activity at 5 µM (AMPK-alpha2): 90% | kinase activity compared with the control (CDK2/cyclinA): 98 | kinase activity compared with the control (CDK3/cyclinE): 99 | remaining activity at 5 µM (DYRK2): 97% | remaining activity at 5 µM (FGFR1): 86% | remaining activity at 5 µM (Fyn): 99% | remaining activity at 5 µM (IKK beta): 68% | remaining activity at 5 µM (MAPK2): 102% | remaining activity at 5 µM (PKB alpha (Akt1)): 68% | remaining activity at 5 µM (c-Kit): 123% | remaining activity at 5 µM (c-RAF): 87% | remaining activity at 5 µM (p70S6K): 72%
